The values that follow come from US20030119733A1, “Compositions and methods for inhibiting hepatocyte invasion by malarial sporozoites” (New York University, priority 1992, published 2003).

The test system of data set [1] is binding of CSFZ(Cys) to HepG2 cells. Kind of data set: Inhibition of CS binding to HepG2 cells by glycosaminoglycans. The arrangement: species or system human. The following applies: preincubated with 5 μg/ml CSFZ(Cys); FIG. 9. The method, then:
10^5 HepG2 cells were deposited in 96-well Removawell tissue culture plates and allowed to grow overnight in MEM (Gibco) containing 10% FCS, 1 mM L-glutamine (Gibco), 3 mg/ml glucose (Sigma) and 1× non-essential amino acids (Gibco). The HepG2 cells were fixed with 4% paraformaldehyde in TBS (50 mM Tris-HCl, pH 7.5, 137 mM NaCl, 2 mM KCl), were washed 3 times with TBS, and were stored at 4° C. in BSA/TBS until use. CSFZ(Cys) at 5 μg/ml was incubated with increasing amounts of the presumed inhibitors at 37° C. for 15 min. Fifty μl of these mixtures were added to the cells, incubated for 1 hr at 37° C., washed 3× with TBS/0.05% Tween and then sequentially incubated with 50 μl of mAb 2A10 at a concentration of 10 μg/ml in TBS/BSA buffer for 30 min at 37° C., and 1:5000 dilution of goat anti-mouse IgG conjugated to alkaline phosphatase (Boehringer) for 30 minutes. […] After 15 minutes, the fluorescence was measured in a Fluoroskan II plate reader (ICN).
Proteoglycans were preincubated with 5 μg/ml of CSFZ(Cys) and then were added to paraformaldehyde-fixed HepG2 cells. […] Each point represents the mean of triplicates. Percent inhibition was calculated by comparison to CSFZ(Cys) preincubated in medium alone.

Data set [2] concerns Vivax-2 binding to cholesterol-sulfate. As to the kind of experiment: Inhibition of binding of Vivax-2 to cholesterol-sulfate. Further details: species or system P. vivax. Here is the method:
(§1) Solid phase binding assays: Thirty μl of lipids or steroids dissolved in methanol (20-250 μg/ml) were dried into wells of microassay plates (Cat.# 3911—Falcon—Oxnard, Calif.). The plates were then blocked with 1% BSA/PBS pH 7.4 (BSA/PBS) for 30 minutes. Wells were incubated with recombinant protein (or with parasite extract) in PBS/BSA for 1 hour, washed 3 times with BSA/PBS, incubated for 1 hour with monoclonal antibodies 2F2 or 2A10 in BSA/PBS, washed 3 times, and then incubated with (10^5 cpm/well) ^125I protein A (Amersham Corp., Arlington Hts., Ill.). In the case of the P. berghei CS protein, wells were incubated with ^125I labelled mAb 3D11. Wells were washed again and the bound radioactive protein was counted in an LKB gamma-counter (model #1260, Pharmacia, Inc., Gaithersburg, Md.). For inhibition assays, the recombinant proteins were mixed with dilutions of the various polymers in BSA/PBS, the mixture was loaded into the wells of the microtiter plates, and the binding assay performed as above. See also, Roberts, et al. J. Biol. Chem. 260:9405-9411, 1985.

The target in data set [3] is T1, P.berghei CS protein binding to sulfatide (Plasmodium berghei, UniProt P06915).
T1 construct: as well as the native P. berghei CS protein; endogenous in cells; host or cells: P. berghei sporozoites (extract, 35,000 sporozoite equivalents/well)
Kind of data set: Inhibition of binding of P.berghei CS protein to sulfatide. Here is the method: as §1

For data set [4], the system named is Vivax-2 binding to sulfatide. Kind of data set: Inhibition of binding of Vivax-2 to sulfatide. Further details: species or system P. vivax. Here is the method:
as §1

The test system of another data set is P. berghei sporozoites. As to the kind of experiment: Infection assay of HepG2 cells with polymers. The data set is classed as cell-based. The method, then: Infection assay: Semiconfluent monolayers of HepG2 cells were grown in 10% FCS/MEM on 8 chamber slides (#4808 Lab-tek -Naperville, Ill.) for 24 hours prior to each experiment. Sporozoites were pre-incubated in media alone or with the various polymers for 15 minutes at 4° C. 5×10^4 sporozoites, in a volume of 10 μl, were added per chamber. After 4 hours of incubation at 37° C., the medium containing the sporozoites was gently aspirated, and 0.5 ml MEM/10% FCS was added. Fresh medium was added at 18 hours and 28 hours, and then cells were fixed with methanol containing 0.3% H2O2 at 48 hours. After fixation, the wells were blocked with 10% FCS/PBS and were incubated with 10 μg/ml of mAb 2E6. Binding of the mAb was detected with a polyclonal goat anti-mouse Ig conjugated to horseradish peroxidase. […] The parasites in each well are counted under a 40× light microscope objective.
The cells were fixed and stained with mAb 2E6, followed by goat-anti-mouse linked to horseradish peroxidase. Numbers represent schizonts counted/20 fields under 40× magnification in a light microscope.

Data set [5] concerns the target hepatocyte plasma membrane receptor for the circumsporozoite protein on human hepatocytes and HepG2. As to the kind of experiment: competition: fixed HepG2 cells preincubated with peptide, washed, then CSFZ (Cys) 2.5 µg/ml (competitor); cell ELISA.

Regarding dextran-sulfate, in data set [1], the “inhibition of CS binding to HepG2 cells” value is “inhibited”. Besides, the “% INHIBITION” value is on record as 12.2% in data set [2] (inhibitor 1 μg/ml); 21.1% in data set [2] (inhibitor 10 μg/ml); 25.6% in data set [2] (inhibitor 100 μg/ml); 33% in data set [2] (inhibitor 1 mg/ml); 40.5% in data set [2] (inhibitor 10 mg/ml); “less than 50%” in data set [2] (inhibitor 10 mg/ml, listed as dextran-sulfate). Moreover, the “% INHIBITION” value is on record as 31.2% in data set [3] (inhibitor 1 μg/ml); 63% in data set [3] (inhibitor 10 μg/ml); 79% in data set [3] (inhibitor 100 μg/ml); 19% in data set [4] (inhibitor 1 μg/ml); 70.2% in data set [4] (inhibitor 10 μg/ml). The “development of the liver stages” value with P. berghei sporozoites (added after 4 hours of contact, after invasion) is “not affected”. The “invasion of hepatocytes by sporozoites in vitro” value in the data set with P. berghei sporozoites (no conditions given) was “inhibited”. Also, the “effect on sporozoite invasion” value in the data set on P. berghei sporozoites (present during invasion, 5-50 μg/ml) is on record as “inhibited invasion in a dose-dependent fashion”.

A word on the IC50: it is the concentration needed to halve the response being measured. Lower therefore signals greater potency in that assay. Regarding CGNGIQVRIKPGSANKPKDE [Pf2], the IC50 in data set [5] amounted to 75 µg/mL.
